Experimental data reported in article PMC9014410, “Discovery of V-0219: A Small-Molecule Positive Allosteric Modulator of the Glucagon-Like Peptide-1 Receptor toward Oral Treatment for “Diabesity”” (Journal of Medicinal Chemistry, 2022).

What follows are compounds tested against hGLP-1R (Homo sapiens, UniProt P43220) (assay: cAMP accumulation in HEK-293 cells expressing hGLP-1R (HEK-GLP-1 cells)). Details: HEK293, read-out: Potentiation of GLP-1 Emax at 10 ?M in a cAMP assay (%); 10 ?M compound (supplementary csv).
Sequence of hGLP-1R (P43220 24-463): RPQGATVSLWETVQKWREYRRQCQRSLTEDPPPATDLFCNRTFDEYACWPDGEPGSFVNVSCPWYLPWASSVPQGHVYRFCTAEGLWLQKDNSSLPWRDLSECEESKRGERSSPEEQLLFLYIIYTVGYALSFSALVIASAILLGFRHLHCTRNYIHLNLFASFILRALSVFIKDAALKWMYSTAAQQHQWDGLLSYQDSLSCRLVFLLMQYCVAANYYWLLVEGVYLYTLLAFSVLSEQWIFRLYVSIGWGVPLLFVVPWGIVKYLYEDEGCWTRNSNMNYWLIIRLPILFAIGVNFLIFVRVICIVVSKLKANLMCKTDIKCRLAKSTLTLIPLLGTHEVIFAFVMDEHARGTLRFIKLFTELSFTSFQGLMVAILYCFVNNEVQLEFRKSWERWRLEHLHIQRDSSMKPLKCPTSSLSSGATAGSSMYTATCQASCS
Assay type: cell-based
Experimental: After this time the culture medium was replaced by 20 μL fresh Opti-MEM containing 500 μM IBMX and 100 μM K579 and incubated with gentle stirring for 10 min at rt. […] Concentration-response curves were fitted to a 4-parameter logistic equation by using GraphPad Prism 2.1 software.

Emax, < 30%:
COc1ccc(Br)cc1S(=O)(=O)NC(=O)C1CCN(Cc2nc(-c3ccc(C(F)(F)F)cc3)no2)CC1 [S51]
O=S(=O)(NC1CCN(Cc2nc(-c3ccc(C(F)(F)F)cc3)no2)CC1)c1ccc(OC(F)(F)F)cc1 [S17]
O=C(NS(=O)(=O)c1ccc(F)cc1)C1CCN(Cc2nc(-c3ccc(C(F)(F)F)cc3)no2)CC1 [S43]
COc1ccc(Br)cc1S(=O)(=O)NC(=O)CC1CCN(Cc2nc(-c3ccc(C(F)(F)F)cc3)no2)CC1 [S64]
Cc1ccccc1S(=O)(=O)NCC1CCN(Cc2nc(-c3ccc(C(F)(F)F)cc3)no2)CC1 [S33]
O=C(NS(=O)(=O)c1ccc(C(F)(F)F)cc1)C1CCN(Cc2nc(-c3ccc(C(F)(F)F)cc3)no2)CC1 [S49]
CCS(=O)(=O)NC(=O)C1CCN(Cc2nc(-c3ccc(C(F)(F)F)cc3)no2)CC1 [S37]
Cc1ccccc1S(=O)(=O)NC(=O)CC1CCN(Cc2nc(-c3ccc(C(F)(F)F)cc3)no2)CC1 [S60]
O=S(=O)(NCC1CCN(Cc2nc(-c3ccc(C(F)(F)F)cc3)no2)CC1)c1ccccc1Cl [S28]
O=C(NS(=O)(=O)c1cccc(Cl)c1)C1CCN(Cc2nc(-c3ccc(C(F)(F)F)cc3)no2)CC1 [S45]
Fc1ccc(-c2noc(CN3CCCC(CN4CCOCC4)C3)n2)cc1 (stereo not shown) [S78]
FC(F)(F)c1cccc(-c2noc(CN3CCCC(CN4CCOCC4)C3)n2)c1 (stereo not shown) [S66]
O=S(=O)(NCC1CCN(Cc2nc(-c3ccc(C(F)(F)F)cc3)no2)CC1)c1ccc(C(F)(F)F)cc1 [S35]
Fc1ccccc1-c1noc(CN2CCCC(CN3CCOCC3)C2)n1 (stereo not shown) [S76]
CNC(=O)c1ccc(-c2noc(CN3CCCC(CN4CCOCC4)C3)n2)cc1 (stereo not shown) [S87]
COC(=O)c1ccc(-c2noc(CN3CCCC(CN4CCOCC4)C3)n2)cc1 (stereo not shown) [S83]
CNc1ccccc1-c1noc(CN2CCCC(CN3CCOCC3)C2)n1 (stereo not shown) [S73]
NC(=O)c1cccc(-c2noc(CN3CCCC(CN4CCOCC4)C3)n2)c1 (stereo not shown) [S84]
CC(=O)c1cccc(S(=O)(=O)NCC2CCN(Cc3nc(-c4ccc(C(F)(F)F)cc4)no3)CC2)c1 [S23]
O=S(=O)(NCC1CCN(Cc2nc(-c3ccc(C(F)(F)F)cc3)no2)CC1)c1ccc(OC(F)(F)F)cc1 [S36]
NC(=O)c1ccc(-c2noc(CN3CCCC(CN4CCOCC4)C3)n2)cc1 (stereo not shown) [S85]
O=C(CC1CCN(Cc2nc(-c3ccc(C(F)(F)F)cc3)no2)CC1)NS(=O)(=O)c1cccc(F)c1 [S56]
O=S(=O)(NC1CCN(Cc2nc(-c3ccc(C(F)(F)F)cc3)no2)CC1)c1cccc(F)c1 [S13]
O=S(=O)(NC1CCN(Cc2nc(-c3ccc(C(F)(F)F)cc3)no2)CC1)c1ccc(C(F)(F)F)cc1 [S16]
Clc1cccc(-c2noc(CN3CCCC(CN4CCOCC4)C3)n2)c1 (stereo not shown) [S80]
O=C(NS(=O)(=O)c1ccc(OC(F)(F)F)cc1)C1CCN(Cc2nc(-c3ccc(C(F)(F)F)cc3)no2)CC1 [S50]
Cc1ccc([N+](=O)[O-])cc1S(=O)(=O)NC1CCN(Cc2nc(-c3ccc(C(F)(F)F)cc3)no2)CC1 [S19]
O=S(=O)(NC1CCN(Cc2nc(-c3ccc(C(F)(F)F)cc3)no2)CC1)c1ccc(F)cc1 [S14]
COc1ccccc1-c1noc(CN2CCCC(CN3CCOCC3)C2)n1 (stereo not shown) [S70]
FC(F)(F)c1ccccc1-c1noc(CN2CCCC(CN3CCOCC3)C2)n1 (stereo not shown) [S65]
O=S(=O)(NCC1CCN(Cc2nc(-c3ccc(C(F)(F)F)cc3)no2)CC1)c1ccc(F)cc1 [S32]
CNc1ccc(-c2noc(CN3CCCC(CN4CCOCC4)C3)n2)cc1 (stereo not shown) [S75]
O=C(CC1CCN(Cc2nc(-c3ccc(C(F)(F)F)cc3)no2)CC1)NS(=O)(=O)c1ccc(OC(F)(F)F)cc1 [S63]
CC(=O)c1cccc(S(=O)(=O)NC2CCN(Cc3nc(-c4ccc(C(F)(F)F)cc4)no3)CC2)c1 [S4]
Fc1cccc(-c2noc(CN3CCCC(CN4CCOCC4)C3)n2)c1 (stereo not shown) [S77]
Cc1ccccc1-c1noc(CN2CCCC(CN3CCOCC3)C2)n1 (stereo not shown) [S67]
O=C(CC1CCN(Cc2nc(-c3ccc(C(F)(F)F)cc3)no2)CC1)NS(=O)(=O)c1cccc(Cl)c1 [S58]
Clc1ccccc1-c1noc(CN2CCCC(CN3CCOCC3)C2)n1 (stereo not shown) [S79]
N#Cc1ccc(S(=O)(=O)NC2CCN(Cc3nc(-c4ccc(C(F)(F)F)cc4)no3)CC2)cc1 [S9]
O=C(CC1CCN(Cc2nc(-c3ccc(C(F)(F)F)cc3)no2)CC1)NS(=O)(=O)Cc1ccccc1 [S54]
COc1ccc(S(=O)(=O)NCC2CCN(Cc3nc(-c4ccc(C(F)(F)F)cc4)no3)CC2)cc1 [S34]
CCCS(=O)(=O)NC1CCN(Cc2nc(-c3ccc(C(F)(F)F)cc3)no2)CC1 [S2]
N#Cc1cccc(S(=O)(=O)NCC2CCN(Cc3nc(-c4ccc(C(F)(F)F)cc4)no3)CC2)c1 [S26]
CCCS(=O)(=O)NCC1CCN(Cc2nc(-c3ccc(C(F)(F)F)cc3)no2)CC1 [S21]
O=S(=O)(NCC1CCN(Cc2nc(-c3ccc(C(F)(F)F)cc3)no2)CC1)c1cccc(Cl)c1 [S29]
COc1ccc(S(=O)(=O)NC(=O)CC2CCN(Cc3nc(-c4ccc(C(F)(F)F)cc4)no3)CC2)cc1 [S61]
O=S(=O)(NCC1CCN(Cc2nc(-c3ccc(C(F)(F)F)cc3)no2)CC1)c1ccc(Cl)cc1 [S30]
CS(=O)(=O)NC1CCN(Cc2nc(-c3ccc(C(F)(F)F)cc3)no2)CC1 [S1]
N#Cc1ccc(S(=O)(=O)NCC2CCN(Cc3nc(-c4ccc(C(F)(F)F)cc4)no3)CC2)cc1 [S27]
CS(=O)(=O)NC(=O)CC1CCN(Cc2nc(-c3ccc(C(F)(F)F)cc3)no2)CC1 [S52]
COc1ccc(-c2noc(CN3CCCC(CN4CCOCC4)C3)n2)cc1 (stereo not shown) [S72]
CCCS(=O)(=O)NC(=O)C1CCN(Cc2nc(-c3ccc(C(F)(F)F)cc3)no2)CC1 [S38]
O=S(=O)(NC1CCN(Cc2nc(-c3ccc(C(F)(F)F)cc3)no2)CC1)c1ccccc1F [S12]
O=C(NS(=O)(=O)c1ccc(Cl)cc1)C1CCN(Cc2nc(-c3ccc(C(F)(F)F)cc3)no2)CC1 [S46]
COc1cccc(-c2noc(CN3CCCC(CN4CCOCC4)C3)n2)c1 (stereo not shown) [S71]
O=C(CC1CCN(Cc2nc(-c3ccc(C(F)(F)F)cc3)no2)CC1)NS(=O)(=O)c1ccc(Cl)cc1 [S59]
CC(=O)c1cccc(S(=O)(=O)NC(=O)CC2CCN(Cc3nc(-c4ccc(C(F)(F)F)cc4)no3)CC2)c1 [S55]
Cc1cccc(-c2noc(CN3CCCC(CN4CCOCC4)C3)n2)c1 (stereo not shown) [S68]
Cc1ccccc1S(=O)(=O)NC(=O)C1CCN(Cc2nc(-c3ccc(C(F)(F)F)cc3)no2)CC1 [S47]
CNc1cccc(-c2noc(CN3CCCC(CN4CCOCC4)C3)n2)c1 (stereo not shown) [S74]
CC(=O)c1cccc(S(=O)(=O)NC(=O)C2CCN(Cc3nc(-c4ccc(C(F)(F)F)cc4)no3)CC2)c1 [S40]
O=S(=O)(NC1CCN(Cc2nc(-c3ccc(C(F)(F)F)cc3)no2)CC1)c1ccc(Cl)cc1 [S11]
O=C(NS(=O)(=O)c1ccccc1F)C1CCN(Cc2nc(-c3ccc(C(F)(F)F)cc3)no2)CC1 [S41]
O=C(NS(=O)(=O)Cc1ccccc1)C1CCN(Cc2nc(-c3ccc(C(F)(F)F)cc3)no2)CC1 [S39]
CS(=O)(=O)NCC1CCN(Cc2nc(-c3ccc(C(F)(F)F)cc3)no2)CC1 [S20]
N#Cc1ccccc1S(=O)(=O)NCC1CCN(Cc2nc(-c3ccc(C(F)(F)F)cc3)no2)CC1 [S25]
COc1ccc(S(=O)(=O)NC(=O)C2CCN(Cc3nc(-c4ccc(C(F)(F)F)cc4)no3)CC2)cc1 [S48]
N#Cc1cccc(S(=O)(=O)NC2CCN(Cc3nc(-c4ccc(C(F)(F)F)cc4)no3)CC2)c1 [S8]
O=C(CC1CCN(Cc2nc(-c3ccc(C(F)(F)F)cc3)no2)CC1)NS(=O)(=O)c1ccc(F)cc1 [S57]
Cc1ccccc1S(=O)(=O)NC1CCN(Cc2nc(-c3ccc(C(F)(F)F)cc3)no2)CC1 [S15]
O=C(CC1CCN(Cc2nc(-c3ccc(C(F)(F)F)cc3)no2)CC1)NS(=O)(=O)c1ccc(C(F)(F)F)cc1 [S62]
O=[N+]([O-])c1ccc(S(=O)(=O)NC2CCN(Cc3nc(-c4ccc(C(F)(F)F)cc4)no3)CC2)cc1 [S6]
O=C(NS(=O)(=O)c1cccc(F)c1)C1CCN(Cc2nc(-c3ccc(C(F)(F)F)cc3)no2)CC1 [S42]
CCCS(=O)(=O)NC(=O)CC1CCN(Cc2nc(-c3ccc(C(F)(F)F)cc3)no2)CC1 [S53]
O=[N+]([O-])c1ccccc1S(=O)(=O)NC1CCN(Cc2nc(-c3ccc(C(F)(F)F)cc3)no2)CC1 [S5]
O=[N+]([O-])c1ccccc1S(=O)(=O)NCC1CCN(Cc2nc(-c3ccc(C(F)(F)F)cc3)no2)CC1 [S24]
O=S(=O)(Cc1ccccc1)NCC1CCN(Cc2nc(-c3ccc(C(F)(F)F)cc3)no2)CC1 [S22]
O=S(=O)(NC1CCN(Cc2nc(-c3ccc(C(F)(F)F)cc3)no2)CC1)c1cccc(Cl)c1 [S10]
COc1ccc(Br)cc1S(=O)(=O)NC1CCN(Cc2nc(-c3ccc(C(F)(F)F)cc3)no2)CC1 [S18]
COC(=O)c1cccc(-c2noc(CN3CCCC(CN4CCOCC4)C3)n2)c1 (stereo not shown) [S82]
Cc1ccc(-c2noc(CN3CCCC(CN4CCOCC4)C3)n2)cc1 (stereo not shown) [S69]
CNC(=O)c1cccc(-c2noc(CN3CCCC(CN4CCOCC4)C3)n2)c1 (stereo not shown) [S86]
